In ChEMBL document CHEMBL1201862, “PubChem BioAssay data set” (2004):
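Briefly, cells in 96-well plates were exposed to five compound concentrations for 48 h, and endpoints were estimated by linear interpolation. GI50 marks 50% less growth.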 Activity calls are given as the source filed them. No stated cut-off is given here; in the data, active = GI50 up to about 1.1 µM and inactive = higher.

Experiments:
Test in all cases: NCI anticancer screen, dose series, 48 h
SK-MEL-2 = tested on: SK-MEL-2
LOX IMVI = tested on: LOX IMVI
CCRF-CEM = tested on: CCRF-CEM
UACC-62 = tested on: UACC-62
SF-295 = tested on: SF-295
KM-20L2 = tested on: KM-20L2
SW-620 = tested on: SW-620
M14 = tested on: M14
KM12 = tested on: KM12
IGROV-1 = tested on: IGROV-1
SK-OV-3 = tested on: SK-OV-3
HT-29 = tested on: HT-29
HCT-15 = tested on: HCT-15
NCI-H23 = tested on: NCI-H23
OVCAR-4 = tested on: OVCAR-4
OVCAR-8 = tested on: OVCAR-8
HL-60 = tested on: HL-60
M19-MEL = tested on: M19-MEL
MCF7 = tested on: MCF7
DU-145 = tested on: DU-145

With `C[C@]12CC(C#N)C(=O)C(O)=C1CC[C@@H]1C2CC[C@@]2(C)C1CC[C@@H]2O` (stereo partly drawn) the GI50 (SK-MEL-2) was 51.8 µM (inactive), the GI50 (LOX IMVI) was 27.4 µM (inactive) and the GI50 (CCRF-CEM) was 45.1 µM (inactive). For the same compound, the GI50 (UACC-62) was 3.99 µM (inactive), the GI50 (SF-295) was > 100 µM (inactive) and the GI50 (KM-20L2) was 95.5 µM (inactive). For the same compound, the GI50 (SW-620) was > 100 µM (inactive), the GI50 (M14) was 65.5 µM (inactive) and the GI50 (KM12) was > 100 µM (inactive). The GI50 (IGROV-1) was 12.2 µM (inactive), the GI50 (SK-OV-3) was 33.2 µM (inactive) and the GI50 (HT-29) was > 100 µM (inactive). For the same compound, the GI50 (HCT-15) was 48.6 µM, the GI50 (NCI-H23) was 35.6 µM (inactive) and the GI50 (OVCAR-4) was 48.5 µM (inactive). The GI50 (OVCAR-8) was > 100 µM (inactive) and the GI50 (HL-60) was 13.8 µM (inactive).

With `COc1ccc(C2=NN(c3ccccc3)C[N+](c3ccc(C)cc3)=N2)cc1` the GI50 (LOX IMVI) was 32 µM (inactive), the GI50 (M19-MEL) was 29.9 µM (inactive) and the GI50 (CCRF-CEM) was 19.3 µM (inactive). The GI50 (SF-295) was > 100 µM (inactive), the GI50 (KM-20L2) was 59 µM (inactive) and the GI50 (SW-620) was 25.6 µM (inactive). The GI50 (KM12) was > 10 µM (inactive), the GI50 (IGROV-1) was 39.3 µM (inactive) and the GI50 (HT-29) was 73.1 µM (inactive). The GI50 (HCT-15) was 51.2 µM, the GI50 (NCI-H23) was 41.3 µM (inactive) and the GI50 (OVCAR-4) was 13.2 µM (inactive). The GI50 (OVCAR-8) was 78.2 µM (inactive) and the GI50 (HL-60) was 27.7 µM (inactive).

With `CNC(SC)=C1C(=O)OC(C)(C)OC1=O` the GI50 (SK-MEL-2) was 37.1 µM (inactive), the GI50 (LOX IMVI) was 73.3 µM (inactive) and the GI50 (M19-MEL) was > 100 µM (inactive). The GI50 (CCRF-CEM) was > 100 µM (inactive), the GI50 (UACC-62) was > 100 µM (inactive) and the GI50 (SF-295) was > 100 µM (inactive). The GI50 (KM-20L2) was > 100 µM (inactive), the GI50 (SW-620) was 20 µM (inactive) and the GI50 (M14) was > 100 µM (inactive). The GI50 (KM12) was > 100 µM (inactive), the GI50 (IGROV-1) was > 100 µM (inactive) and the GI50 (SK-OV-3) was > 100 µM (inactive). For the same compound, the GI50 (HT-29) was > 100 µM (inactive), the GI50 (HCT-15) was 19.8 µM and the GI50 (NCI-H23) was > 100 µM (inactive). The GI50 (OVCAR-8) was > 100 µM (inactive) and the GI50 (HL-60) was > 100 µM (inactive).

`CC(O)c1ccc[n+](Cc2ccccc2)c1` (stereo not drawn) was tested, and the GI50 (SK-MEL-2) was > 400 µM (inactive), the GI50 (LOX IMVI) was > 400 µM (inactive) and the GI50 (M19-MEL) was > 400 µM (inactive). For the same compound, the GI50 (CCRF-CEM) was > 400 µM (inactive), the GI50 (UACC-62) was > 400 µM (inactive) and the GI50 (SF-295) was > 400 µM (inactive). For the same compound, the GI50 (KM-20L2) was > 400 µM (inactive), the GI50 (SW-620) was > 400 µM (inactive) and the GI50 (KM12) was > 400 µM (inactive). The GI50 (IGROV-1) was > 400 µM (inactive), the GI50 (SK-OV-3) was > 400 µM (inactive) and the GI50 (HT-29) was > 400 µM (inactive). For the same compound, the GI50 (HCT-15) was > 400 µM, the GI50 (NCI-H23) was > 400 µM (inactive) and the GI50 (OVCAR-8) was > 400 µM (inactive). The GI50 (HL-60) was > 400 µM (inactive).

In the case of `O=C1c2ccccc2C(=O)C2C3c4ccccc4C(c4ccccc43)C12` (stereo not drawn), the GI50 (LOX IMVI) is reported as 13.5 µM (inactive), the GI50 (M19-MEL) is reported as 18.5 µM (inactive) and the GI50 (CCRF-CEM) is reported as 10.7 µM (inactive). The GI50 (UACC-62) was 33 µM (inactive), the GI50 (SF-295) was 12.8 µM (inactive) and the GI50 (KM-20L2) was > 100 µM (inactive). For the same compound, the GI50 (SW-620) was > 100 µM (inactive), the GI50 (M14) was 56.4 µM (inactive) and the GI50 (KM12) was 28.2 µM (inactive). For the same compound, the GI50 (IGROV-1) was 22.9 µM (inactive), the GI50 (SK-OV-3) was 24.9 µM (inactive) and the GI50 (HT-29) was 21.1 µM (inactive). For the same compound, the GI50 (HCT-15) was 39 µM, the GI50 (NCI-H23) was 41.7 µM (inactive) and the GI50 (OVCAR-8) was 12.6 µM (inactive).

`CC(=O)NCCC1CN(C(=O)/C=C/I)c2ccccc21` (stereo not drawn) was tested, and the GI50 (SK-MEL-2) was 3.29 µM (inactive), the GI50 (LOX IMVI) was 1.56 µM (inactive) and the GI50 (CCRF-CEM) was 2.95 µM (inactive). The GI50 (UACC-62) was 5.07 µM (inactive), the GI50 (SF-295) was 15.5 µM (inactive) and the GI50 (MCF7) was 308 nM (active). The GI50 (DU-145) was 15.7 µM (inactive), the GI50 (SW-620) was 2.1 µM (inactive) and the GI50 (M14) was 3.37 µM (inactive). For the same compound, the GI50 (KM12) was 1.24 µM (inactive), the GI50 (IGROV-1) was 6.55 µM (inactive) and the GI50 (SK-OV-3) was 14.7 µM (inactive). For the same compound, the GI50 (HT-29) was 5.51 µM (inactive), the GI50 (HCT-15) was 4.93 µM and the GI50 (NCI-H23) was 11.9 µM (inactive). For the same compound, the GI50 (OVCAR-4) was 1.96 µM (inactive), the GI50 (OVCAR-8) was 9.79 µM (inactive) and the GI50 (HL-60) was 3.17 µM (inactive).

In the case of `CC1=C(CO)C(=O)O[C@@H]([C@@H](C)[C@H]2CC[C@H]3[C@@H]4C[C@@H](O)[C@@]5(O)CC=CC(=O)[C@]5(C)[C@H]4CC[C@]23C)C1` [JABOROSALACTONE D], the GI50 (SK-MEL-2) is reported as 43.7 µM (inactive), the GI50 (LOX IMVI) is reported as 23.5 µM (inactive) and the GI50 (CCRF-CEM) is reported as 33.2 µM (inactive). For the same compound, the GI50 (UACC-62) was 29.6 µM (inactive), the GI50 (SF-295) was 61.5 µM (inactive) and the GI50 (MCF7) was 39700 nM (inactive). The GI50 (DU-145) was 35.2 µM (inactive), the GI50 (SW-620) was 21.7 µM (inactive) and the GI50 (M14) was 49.2 µM (inactive). The GI50 (KM12) was 19.8 µM (inactive), the GI50 (IGROV-1) was 15.1 µM (inactive) and the GI50 (SK-OV-3) was 63.8 µM (inactive). For the same compound, the GI50 (HT-29) was 33.1 µM (inactive), the GI50 (HCT-15) was 16.4 µM and the GI50 (NCI-H23) was 21.2 µM (inactive). The GI50 (OVCAR-4) was 32.2 µM (inactive), the GI50 (OVCAR-8) was 31.3 µM (inactive) and the GI50 (HL-60) was 21.1 µM (inactive).

With `CO[C@H]1[C@@H](O)[C@@H](C)O[C@@H](O[C@H]2CC[C@@]3(C)[C@H](CC[C@@H]4[C@@H]3CC[C@]3(C)[C@@H](C5=CC(=O)OC5)CC[C@]43O)C2)[C@@H]1O` [ODOROSIDE H] the GI50 (SK-MEL-2) was 0.0169 µM (active), the GI50 (LOX IMVI) was 0.00689 µM (active) and the GI50 (CCRF-CEM) was 0.00422 µM (active). The GI50 (UACC-62) was 0.00689 µM (active), the GI50 (SF-295) was 0.00516 µM (active) and the GI50 (MCF7) was 7.73 nM (active). The GI50 (DU-145) was 0.00377 µM (active), the GI50 (SW-620) was < 0.0025 µM (active) and the GI50 (M14) was 0.0137 µM (active). For the same compound, the GI50 (KM12) was 0.0112 µM (active), the GI50 (IGROV-1) was 0.00498 µM (active) and the GI50 (SK-OV-3) was 0.00964 µM (active). The GI50 (HT-29) was 0.00573 µM (active), the GI50 (HCT-15) was 0.00766 µM and the GI50 (NCI-H23) was 0.00462 µM (active). The GI50 (OVCAR-4) was 0.00583 µM (active), the GI50 (OVCAR-8) was 0.00661 µM (active) and the GI50 (HL-60) was 0.00378 µM (active).
